# Patent publication US11306071B2, “Heterocyclic compounds as adenosine antagonists” (Nuvation Bio Inc., priority 2019, dated 2022)
# Assays:
# [1] = biological target: HEK-293 cells expressing human recombinant adenosine A1 receptor (Homo sapiens (Human), UniProt P30542); assay: cAMP assay (Assay 2), A1 receptor; format: cell-based
# Experimental: (§1) The functional activity of compounds was tested using Assay 2, below, to detect the presence of cAMP. Assay 1 is an alternative assay for this purpose. Activation of G-protein coupled receptors (such as A2A) results in activation of adenylyl cyclase which converts ATP into cAMP which is used as a downstream signaling molecule. Therefore, molecules which act as GPCR (or specifically A2A receptor) antagonists cause a decrease in intracellular cAMP concentration.
# (§2) Assay 2 (Table B2): This assay used HEK-293 cells expressing human recombinant adenosine A2A receptor (or, alternatively, A1 receptor) that were grown prior to the test in media without antibiotic. 100 nL of test articles at 100x of final concentration were transferred to assay plate by Echo. Cells were washed twice with 5 mL of PBS and 10 μL of cells were mixed with 5 mL PBS. After aspirating the PBS and adding 1.5 mL versine, cells were incubated at 37° C. for 2-5 min. After centrifugation, 4 mL of medium was added and adjusted cell density to 5,000 cells/well with Stimulation Buffer. 10 μL of cells were aliquoted to the assay plate, centrifuged at 1000 rpm for 1 minute, and incubated for 60 minutes at room temperature. 5 μL 4× Eu-cAMP tracer solution and 5 μL 4× Ulight™-anti-cAMP solution were added to assay plate, followed by centrifugation and 60-minute incubation at room temperature. Plates were read on EnVision.
# [2] = biological target: HEK-293 cells expressing human recombinant adenosine A2A receptor (Homo sapiens (Human), UniProt P29274); assay: cAMP assay (Assay 2), A2A receptor; format: cell-based
# Sequence of HEK-293 cells expressing human recombinant adenosine A2A receptor (P29274 whole entry): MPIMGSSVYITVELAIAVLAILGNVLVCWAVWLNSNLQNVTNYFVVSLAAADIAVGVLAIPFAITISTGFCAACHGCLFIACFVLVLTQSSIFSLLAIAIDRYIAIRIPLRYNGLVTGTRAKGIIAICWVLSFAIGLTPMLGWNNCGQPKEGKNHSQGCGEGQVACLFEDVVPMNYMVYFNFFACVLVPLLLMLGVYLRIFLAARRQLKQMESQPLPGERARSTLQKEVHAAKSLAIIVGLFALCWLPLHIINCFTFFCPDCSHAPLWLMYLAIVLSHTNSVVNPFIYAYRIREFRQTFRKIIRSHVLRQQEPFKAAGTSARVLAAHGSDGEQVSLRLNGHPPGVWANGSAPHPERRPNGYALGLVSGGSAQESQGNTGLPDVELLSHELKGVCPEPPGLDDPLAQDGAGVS
# Experimental: as §1, §2
# [3] = biological target: adenosine A2a (human) membrane (Homo sapiens (Human), UniProt P29274); assay: A2A adenosine receptor radioligand binding assay ([3H] CGS-21680); details: radioligand [3H] CGS-21680 6 nM
# Sequence of adenosine A2a (human) membrane (P29274 whole entry): as above
# Experimental: A second A2A adenosine receptor radioligand binding assay protocol was used. The protocol used adenosine A2a (human) membrane (PerkinElmer RBHA2AM400UA) at a concentration of 5 μg/well/100 μl and the radioligand [3H] CGS-21680 (Cat No. PerkinElmer-NET1021250UC) at a final concentration of 6 nM. Testing compounds were diluted with DMSO to make 8-point 4-fold serial dilution, starting at 0.2 mM. CGS-15943 was the reference compound. 1 μl of compounds/high control/low control was transferred to the assay plate according to a plate map, followed by 100 μl of membrane stocks and 100 μl of radioligand, in assay buffer (50 mM Tris-HCl, 10 mM MgCl2, 1 mM EDTA, pH 7.4). The plate was sealed and incubated at RT for 2 hours. Unifilter-96 GF/C filter plates (Perkin Elmer Cat #6005174) were soaked with 50 μl of 0.3% PEI per well for at least 0.5 hour at room temperature. When the binding assays were completed, the reaction mixtures were filtered through GF/C plates using Perkin Elmer Filtermate Harvester, and each plate washed 4 times with cold wash buffer (50 mM Tris-HCl, 154 mM NaCl, pH 7.4). The filter plates were dried for 1 hour at 50 degrees. After drying, the bottom of the filter plate wells was sealed, 50 μl of Perkin Elmer Microscint 20 cocktail was added, and the top of the filter plate was sealed. ^3H trapped on the filter was counted using Perkin Elmer MicroBeta2 Reader. The data were analyzed with GraphPad Prism 5 to obtain binding IC50 values. The “Inhibition [% Control]” was calculated using the equation: % Inh=(1-Background subtracted Assay value/Background subtracted HC value)*100, where HC is high control.
# [4] = biological target: adenosine A1 (human) membrane (Homo sapiens (Human), UniProt P30542); assay: A1 adenosine receptor radioligand binding assay ([3H] DPCPX); details: 200 nM compound; radioligand [3H] DPCPX 1 nM
# Sequence of adenosine A1 (human) membrane (P30542 whole entry): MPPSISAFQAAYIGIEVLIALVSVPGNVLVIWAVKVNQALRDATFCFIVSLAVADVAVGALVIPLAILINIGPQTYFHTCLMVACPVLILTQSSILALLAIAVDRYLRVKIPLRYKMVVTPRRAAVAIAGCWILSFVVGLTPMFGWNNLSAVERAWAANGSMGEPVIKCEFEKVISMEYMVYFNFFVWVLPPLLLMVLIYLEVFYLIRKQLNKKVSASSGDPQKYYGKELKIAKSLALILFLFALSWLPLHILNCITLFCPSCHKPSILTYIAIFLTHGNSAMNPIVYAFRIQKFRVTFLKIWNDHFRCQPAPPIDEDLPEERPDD
# Experimental: A second A1 adenosine receptor radioligand binding assay protocol was used. The protocol used adenosine A1 (human) membrane (PerkinElmer ES-010-M400UA) at a concentration of 2.5 μg/well/100 μl and the radioligand [3H] DPCPX (Cat No. PerkinElmer-NET974250UC) at a final concentration of 1 nM. Testing compounds were tested at a final concentration of 200 nM. CGS-15943, the reference compound, was tested in an 8-point 4-fold serial dilution, starting at a top concentration of 1 μM. 1 μl of compounds/high control/low control was transferred to the assay plate according to a plate map, followed by 100 μl of membrane stocks and 100 μl of radioligand, in assay buffer (25 mM HEPES, 5 mM MgCl2, 1 mM CaCl2, 100 mM NaCl, pH 7.4). The plate was sealed and incubated at RT for 1 hour. Unifilter-96 GF/C filter plates (Perkin Elmer Cat #6005174) were soaked with 50 μl of 0.3% PEI per well for at least 0.5 hour at room temperature. When the binding assays were completed, the reaction mixtures were filtered through GF/C plates using Perkin Elmer Filtermate Harvester, and each plate washed 4 times with cold wash buffer (25 mM HEPES, 5 mM MgCl2, 1 mM CaCl2, 100 mM NaCl, pH 7.4). The filter plates were dried for 1 hour at 50 degrees. After drying, the bottom of the filter plate wells was sealed, 50 μl of Perkin Elmer Microscint 20 cocktail was added, and the top of the filter plate was sealed. ^3H trapped on the filter was counted using Perkin Elmer MicroBeta2 Reader. The data were analyzed with GraphPad Prism 5 to obtain binding IC50 values for the reference compound. The “Inhibition [% Control]” was calculated using the equation: % Inh=(1-Background subtracted Assay value/Background subtracted HC value)*100, where HC is high control.
# Sequence of HEK-293 cells expressing human recombinant adenosine A1 receptor (P30542 whole entry): as above
smiles,measurement,setting,value
"C[C@@H](NC(=O)c1nc(-c2ccc3ncccc3c2)c(-c2ccccc2)nc1N)c1ccccn1 [compound 76, (R)-3-amino-5-phenyl-N-(1-(pyridin-2-yl)ethyl)-6-(quinolin-6-yl)pyrazine-2-carboxamide]",IC50,[1],0.804 µM
same,IC50,[2],0.024 µM
same,IC50,[3],0.0034 µM
same,inhibition at 0.2 µM,[4],45%
